IC50 data for 9 molecules are collected here from patent publication US20140107109A1, “AMINO-DIHYDROTHIAZINE AND AMINO-DIOXIDO DIHYDROTHIAZINE COMPOUNDS AS BETA-SECRETASE ANTAGONISTS AND METHODS OF USE” (Amgen Inc., priority 2012, published 2014).

What is called IC50 is the concentration that inhibits the measured activity by half.

Molecules are shown by their SMILES.

Assay [1] addresses Beta Secretase enzyme (BACE1) (Homo sapiens, UniProt P56817). The assay can be described thus: In vitro enzymatic BACE FRET assay. Type of assay: biochemical. Particulars: average IC50, enzyme assay; read-out: BACE1 FRET assay IC50. In outline:
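Readout: dequenched fluorescence (ex 488 nm/[…]) after neutralizing with Tris buffer. Reactions, begun by adding 50 nM quenched peptide substrate spanning the BACE cleavage site, were incubated one hour at pH 4.2 in 0.05 M acetate with 100 uM genapol and 10% final DMSO.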

In assay [2] the test system is Aβ40 in conditioned medium of cells stably expressing Amyloid Precursor Protein (APP). The assay can be described thus: In vitro BACE cell-based assay (HEK cell assay), Aβ40 sandwich ELISA. The note with it: Homo sapiens, HEK293; average IC50, HEK cell assay. In short, it runs like this:
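Aβ40 in conditioned medium was quantified by time-resolved fluorescence sandwich ELISA (pAb40 capture 3 h at 4 °C, biotin-6E10 detection 2 h at 4 °C) after 24 h compound exposure of APP-expressing cells. Doses spanned 10 points from 100 μM or 10 μM top, 0.1% DMSO; IC50 was derived from percent of control.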

The target in a further assay is T1, Cathepsin D (Cat D) (Homo sapiens, UniProt P07339).
T1 construct: Recombinant Cat D was expressed in CHO cells; made in house; host or cells: CHO cells
The assay can be described thus: In vitro enzymatic Cathepsin D (Cat D) FRET assay. It is filed as biochemical. Particulars: read-out: CatD IC50. In outline:
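FRET read-out: a fluorophore/quencher-labelled peptide substrate is cleaved by 9 nM Cat D (recombinant, CHO-expressed) following a one-hour preincubation with inhibitor dilutions in DMSO. Tris buffer added to neutralize pH ends the reaction before fluorescence measurement.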

Sequence of Beta Secretase enzyme (BACE1) (P56817 46-501): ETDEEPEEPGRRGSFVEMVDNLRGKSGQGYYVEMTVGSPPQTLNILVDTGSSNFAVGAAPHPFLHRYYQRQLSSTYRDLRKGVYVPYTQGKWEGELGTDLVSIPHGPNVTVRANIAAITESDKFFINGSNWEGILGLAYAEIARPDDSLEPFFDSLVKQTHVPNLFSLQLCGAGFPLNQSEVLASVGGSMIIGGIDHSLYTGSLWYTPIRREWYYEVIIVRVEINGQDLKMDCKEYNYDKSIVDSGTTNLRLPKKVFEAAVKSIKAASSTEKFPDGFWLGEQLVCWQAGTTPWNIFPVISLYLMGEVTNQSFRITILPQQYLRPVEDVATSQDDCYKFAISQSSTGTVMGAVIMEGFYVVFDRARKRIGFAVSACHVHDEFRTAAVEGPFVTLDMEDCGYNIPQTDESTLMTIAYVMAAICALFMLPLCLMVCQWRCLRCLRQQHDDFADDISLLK
T1 sequence (P07339 65-412, species assumed): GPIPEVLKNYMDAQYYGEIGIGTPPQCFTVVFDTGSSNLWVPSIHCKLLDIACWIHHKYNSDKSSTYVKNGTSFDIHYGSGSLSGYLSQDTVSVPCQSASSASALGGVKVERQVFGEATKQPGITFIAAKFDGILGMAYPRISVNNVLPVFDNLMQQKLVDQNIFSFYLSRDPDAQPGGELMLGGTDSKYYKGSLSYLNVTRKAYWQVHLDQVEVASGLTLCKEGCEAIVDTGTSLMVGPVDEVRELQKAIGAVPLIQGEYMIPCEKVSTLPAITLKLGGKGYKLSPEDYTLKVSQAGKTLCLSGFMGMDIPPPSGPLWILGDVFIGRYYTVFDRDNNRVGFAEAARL

On to `COCc1cc(Cl)cnc1C(=O)Nc1ccc(F)c([C@@]2(C)N=C(N)C(C)(C)S(=O)(=O)C2F)c1` (stereo partly drawn) [Example 335, N-(3-((3R)-5-amino-2-fluoro-3,6,6-trimethyl-1,1-dioxido-3,6-dihydro-2H-1,4-thiazin-3-yl)-4-fluorophenyl)-5-chloro-3-(methoxymethyl)-2-pyridinecarboxamide], for which the IC50 in assay [1] came out at 0.56 nM; in assay [2], 6.8 nM; at Cathepsin D (Cat D), 311000 nM.

With `COc1cnc(C(=O)Nc2ccc(F)c([C@@]3(C)N=C(N)C(C)(C)S(=O)(=O)C3F)c2)c(Cl)c1` (stereo partly drawn) [Example 336, N-(3-((3R)-5-amino-2-fluoro-3,6,6-trimethyl-1,1-dioxido-3,6-dihydro-2H-1,4-thiazin-3-yl)-4-fluorophenyl)-3-chloro-5-methoxy-2-pyridinecarboxamide], the IC50 in assay [1] amounted to 1.4 nM; in assay [2], 5.3 nM; at Cathepsin D (Cat D) it was 533000 nM.

`COc1cnc(C(=O)Nc2ccc(F)c([C@@]3(C)N=C(N)C(C)(C)S(=O)(=O)C3F)c2)c(C)c1` (stereo partly drawn) [Example 337, N-(3-((3R)-5-amino-2-fluoro-3,6,6-trimethyl-1,1-dioxido-3,6-dihydro-2H-1,4-thiazin-3-yl)-4-fluorophenyl)-5-methoxy-3-methyl-2-pyridinecarboxamide]: the IC50 turned out to be 3.13 nM in assay [1], 9.7 nM in assay [2] and 233000 nM on Cathepsin D (Cat D).

`CC1[C@@](C)(c2cc(NC(=O)c3ccc(Cl)cn3)ccc2F)N=C(N)[C@](C)(F)S1(=O)=O` (stereo partly drawn) [Example 339, N-(3-((3R,6R)-5-amino-6-fluoro-2,3,6-trimethyl-1,1-dioxido-3,6-dihydro-2H-1,4-thiazin-3-yl)-4-fluorophenyl)-5-chloro-2-pyridinecarboxamide]: the IC50 in assay [1] came to 18.1 nM; in assay [2], 196 nM; on Cathepsin D (Cat D), 109000 nM.

As to `Cc1cc(Cl)cnc1C(=O)Nc1ccc(F)c([C@@]2(C)N=C(N)C(C)(C)S(=O)(=O)C23CC3)c1` [Example 340, N-(3-((8R)-6-amino-5,5,8-trimethyl-4,4-dioxido-4-thia-7-azaspiro[2.5]oct-6-en-8-yl)-4-fluorophenyl)-5-chloro-3-methyl-2-pyridinecarboxamide], the results for the IC50 (in assay [1]; in assay [2]; on Cathepsin D (Cat D)) were 5.1 nM, 4.4 nM and 20000 nM, respectively.

With `Cc1cc(OC(F)F)cnc1C(=O)Nc1ccc(F)c([C@@]2(C)N=C(N)C(C)(C)S(=O)(=O)C23CC3)c1` [Example 341, N-(3-((8R)-6-amino-5,5,8-trimethyl-4,4-dioxido-4-thia-7-azaspiro[2.5]oct-6-en-8-yl)-4-fluorophenyl)-5-(difluoromethoxy)-3-methyl-2-pyridinecarboxamide], the IC50 is 5.99 nM in assay [1], 2.4 nM in assay [2] and 9400 nM at Cathepsin D (Cat D).

`CC1(C)C(N)=N[C@](C)(c2cc(NC(=O)c3ccc(C(F)(F)F)cn3)ccc2F)CS1(=O)=O` [Example 342, N-(3-((3R)-5-amino-3,6,6-trimethyl-1,1-dioxido-3,6-dihydro-2H-1,4-thiazin-3-yl)-4-fluorophenyl)-5-(trifluoromethyl)-2-pyridinecarboxamide]: the values for the IC50 (in assay [1]; in assay [2]; at Cathepsin D (Cat D)) were 0.61 nM, 0.7 nM and 113000 nM, respectively.

Consider `CC1(C)C(N)=N[C@](C)(c2cc(NC(=O)c3cc4ccccc4cn3)ccc2F)CS1(=O)=O` [Example 343, N-(3-((3R)-5-amino-3,6,6-trimethyl-1,1-dioxido-3,6-dihydro-2H-1,4-thiazin-3-yl)-4-fluorophenyl)-3-isoquinolinecarboxamide], for which the values for the IC50 (in assay [1]; in assay [2]; at Cathepsin D (Cat D)) were 5.11 nM, 10.7 nM and 234000 nM, respectively.

As for `CC1(C)C(N)=N[C@](C)(c2cc(NC(=O)c3cnc(OC(F)F)cn3)ccc2F)CS1(=O)=O` [Example 344, N-(3-((3R)-5-amino-3,6,6-trimethyl-1,1-dioxido-3,6-dihydro-2H-1,4-thiazin-3-yl)-4-fluorophenyl)-5-(difluoromethoxy)-2-pyrazinecarboxamide], the IC50 came to 0.53 nM in assay [1], 0.4 nM in assay [2] and 388000 nM on Cathepsin D (Cat D).
